According to patent publication US20230391768A2, “IMIDAZOPYRIDINE DERIVATIVES AND AZA-IMIDAZOPYRIDINE DERIVATIVES AS JANUS KINASE 2 INHIBITORS AND USES THEREOF” (Dana-Farber Cancer Institute, Inc., priority 2018, published 2023):

Columns and labels:
Assay in all cases: KINOMEscan
Format in all cases: binding
Details in all cases: read-out: percent of control
[1] = molecular target: MAP3K4 (Homo sapiens (Human), UniProt Q9Y6R4)
Procedure: (§1) In vitro profiling of Compound I-2 (1 μM) was performed using the DiscoveRx KINOMEscan® platform.

[2] = molecular target: CTK (Homo sapiens (Human), UniProt P42679)
Procedure: as §1

[3] = molecular target: ERK4 (Homo sapiens (Human), UniProt P31152)
Procedure: as §1

[4] = molecular target: STK16 (Homo sapiens (Human), UniProt O75716)
Procedure: as §1

[5] = molecular target: RAF1 (Homo sapiens (Human), UniProt P04049)
Procedure: as §1

[6] = molecular target: MAP4K4 (Homo sapiens (Human), UniProt O95819)
Procedure: as §1

[7] = molecular target: PRP4 (Homo sapiens (Human), UniProt Q13523)
Procedure: as §1

[8] = molecular target: ZAK (Homo sapiens (Human), UniProt Q9NYL2)
Procedure: as §1

Sequence of MAP3K4 (Q9Y6R4 whole entry): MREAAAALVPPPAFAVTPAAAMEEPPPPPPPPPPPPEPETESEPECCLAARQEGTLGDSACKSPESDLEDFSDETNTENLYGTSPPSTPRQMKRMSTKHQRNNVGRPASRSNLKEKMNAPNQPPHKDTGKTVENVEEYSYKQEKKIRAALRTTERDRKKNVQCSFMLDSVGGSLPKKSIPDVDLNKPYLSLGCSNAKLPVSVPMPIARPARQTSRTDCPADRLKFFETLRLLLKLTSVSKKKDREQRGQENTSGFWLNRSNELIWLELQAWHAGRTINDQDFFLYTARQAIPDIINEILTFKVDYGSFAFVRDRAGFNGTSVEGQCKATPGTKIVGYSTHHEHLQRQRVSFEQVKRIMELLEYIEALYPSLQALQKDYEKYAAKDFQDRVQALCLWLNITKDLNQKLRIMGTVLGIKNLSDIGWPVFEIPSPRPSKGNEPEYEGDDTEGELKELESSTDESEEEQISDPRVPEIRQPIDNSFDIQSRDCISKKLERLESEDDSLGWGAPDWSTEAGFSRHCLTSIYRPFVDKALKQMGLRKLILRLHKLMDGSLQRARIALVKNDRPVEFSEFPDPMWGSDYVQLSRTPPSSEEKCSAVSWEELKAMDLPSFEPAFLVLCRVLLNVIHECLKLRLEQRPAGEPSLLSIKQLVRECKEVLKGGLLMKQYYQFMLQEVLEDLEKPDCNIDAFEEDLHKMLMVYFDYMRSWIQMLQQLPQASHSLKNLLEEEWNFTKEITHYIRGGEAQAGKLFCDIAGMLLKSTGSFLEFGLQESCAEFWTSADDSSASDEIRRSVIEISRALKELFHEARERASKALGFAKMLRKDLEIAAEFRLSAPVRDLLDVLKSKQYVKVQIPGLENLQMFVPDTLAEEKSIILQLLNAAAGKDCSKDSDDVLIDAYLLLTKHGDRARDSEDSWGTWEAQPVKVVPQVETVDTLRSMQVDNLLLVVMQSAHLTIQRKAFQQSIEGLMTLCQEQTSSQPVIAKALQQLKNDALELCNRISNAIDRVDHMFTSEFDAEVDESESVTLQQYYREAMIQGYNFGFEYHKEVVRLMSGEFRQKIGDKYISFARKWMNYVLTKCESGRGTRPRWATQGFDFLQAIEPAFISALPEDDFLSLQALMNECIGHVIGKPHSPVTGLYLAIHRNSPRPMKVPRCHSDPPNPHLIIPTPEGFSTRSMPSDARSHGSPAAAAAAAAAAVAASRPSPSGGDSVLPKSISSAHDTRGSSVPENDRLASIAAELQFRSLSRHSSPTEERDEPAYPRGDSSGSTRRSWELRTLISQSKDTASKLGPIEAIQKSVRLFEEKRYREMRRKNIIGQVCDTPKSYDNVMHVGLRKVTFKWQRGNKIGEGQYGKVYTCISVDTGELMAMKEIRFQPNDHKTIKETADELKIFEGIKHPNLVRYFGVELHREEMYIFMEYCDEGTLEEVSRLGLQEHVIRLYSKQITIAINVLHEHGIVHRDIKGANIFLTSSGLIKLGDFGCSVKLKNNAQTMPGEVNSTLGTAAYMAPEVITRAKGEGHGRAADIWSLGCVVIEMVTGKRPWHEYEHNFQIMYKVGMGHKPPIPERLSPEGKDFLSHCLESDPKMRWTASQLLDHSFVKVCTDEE
Sequence of ZAK (Q9NYL2 whole entry): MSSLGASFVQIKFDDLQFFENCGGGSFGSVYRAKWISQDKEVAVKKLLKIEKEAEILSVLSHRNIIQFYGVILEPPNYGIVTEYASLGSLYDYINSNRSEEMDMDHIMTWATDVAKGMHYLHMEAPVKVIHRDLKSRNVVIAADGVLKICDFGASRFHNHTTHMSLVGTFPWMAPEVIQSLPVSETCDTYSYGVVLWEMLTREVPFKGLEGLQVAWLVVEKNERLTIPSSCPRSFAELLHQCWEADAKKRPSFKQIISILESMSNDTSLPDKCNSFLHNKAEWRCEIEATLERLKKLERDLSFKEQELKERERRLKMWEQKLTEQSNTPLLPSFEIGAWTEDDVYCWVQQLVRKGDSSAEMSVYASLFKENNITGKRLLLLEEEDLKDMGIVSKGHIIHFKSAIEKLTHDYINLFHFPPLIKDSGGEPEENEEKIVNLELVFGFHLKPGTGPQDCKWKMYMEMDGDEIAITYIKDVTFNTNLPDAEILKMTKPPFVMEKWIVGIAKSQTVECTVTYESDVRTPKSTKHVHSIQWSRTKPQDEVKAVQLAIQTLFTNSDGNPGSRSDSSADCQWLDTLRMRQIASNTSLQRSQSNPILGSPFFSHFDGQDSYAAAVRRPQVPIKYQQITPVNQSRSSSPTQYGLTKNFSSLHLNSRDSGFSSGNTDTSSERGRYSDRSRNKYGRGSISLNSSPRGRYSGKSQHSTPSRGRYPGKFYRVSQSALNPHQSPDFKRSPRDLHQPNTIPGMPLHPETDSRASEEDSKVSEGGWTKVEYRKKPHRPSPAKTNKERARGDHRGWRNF
Sequence of STK16 (O75716 whole entry): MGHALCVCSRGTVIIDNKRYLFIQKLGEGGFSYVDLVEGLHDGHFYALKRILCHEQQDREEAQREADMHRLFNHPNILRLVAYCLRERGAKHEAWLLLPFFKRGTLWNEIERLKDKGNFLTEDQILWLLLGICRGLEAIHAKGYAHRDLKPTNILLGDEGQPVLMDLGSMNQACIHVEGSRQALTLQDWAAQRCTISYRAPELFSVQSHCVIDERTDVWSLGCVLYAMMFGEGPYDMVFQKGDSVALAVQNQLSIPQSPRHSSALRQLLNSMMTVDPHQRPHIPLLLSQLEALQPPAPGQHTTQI
Sequence of CTK (P42679 whole entry): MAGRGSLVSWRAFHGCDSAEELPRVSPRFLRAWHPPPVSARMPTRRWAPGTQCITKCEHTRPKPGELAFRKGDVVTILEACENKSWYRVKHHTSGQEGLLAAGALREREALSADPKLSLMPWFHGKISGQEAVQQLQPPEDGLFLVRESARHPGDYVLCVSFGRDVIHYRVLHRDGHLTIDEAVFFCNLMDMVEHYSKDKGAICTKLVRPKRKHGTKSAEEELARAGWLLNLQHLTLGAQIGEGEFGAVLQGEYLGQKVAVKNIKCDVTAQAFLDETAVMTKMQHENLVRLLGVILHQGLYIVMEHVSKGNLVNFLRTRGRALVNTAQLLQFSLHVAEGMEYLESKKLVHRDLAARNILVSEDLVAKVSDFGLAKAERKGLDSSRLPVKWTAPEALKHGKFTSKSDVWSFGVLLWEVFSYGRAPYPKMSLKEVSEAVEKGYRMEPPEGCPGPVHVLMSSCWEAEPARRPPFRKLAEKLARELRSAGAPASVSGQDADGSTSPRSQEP
Sequence of RAF1 (P04049 whole entry): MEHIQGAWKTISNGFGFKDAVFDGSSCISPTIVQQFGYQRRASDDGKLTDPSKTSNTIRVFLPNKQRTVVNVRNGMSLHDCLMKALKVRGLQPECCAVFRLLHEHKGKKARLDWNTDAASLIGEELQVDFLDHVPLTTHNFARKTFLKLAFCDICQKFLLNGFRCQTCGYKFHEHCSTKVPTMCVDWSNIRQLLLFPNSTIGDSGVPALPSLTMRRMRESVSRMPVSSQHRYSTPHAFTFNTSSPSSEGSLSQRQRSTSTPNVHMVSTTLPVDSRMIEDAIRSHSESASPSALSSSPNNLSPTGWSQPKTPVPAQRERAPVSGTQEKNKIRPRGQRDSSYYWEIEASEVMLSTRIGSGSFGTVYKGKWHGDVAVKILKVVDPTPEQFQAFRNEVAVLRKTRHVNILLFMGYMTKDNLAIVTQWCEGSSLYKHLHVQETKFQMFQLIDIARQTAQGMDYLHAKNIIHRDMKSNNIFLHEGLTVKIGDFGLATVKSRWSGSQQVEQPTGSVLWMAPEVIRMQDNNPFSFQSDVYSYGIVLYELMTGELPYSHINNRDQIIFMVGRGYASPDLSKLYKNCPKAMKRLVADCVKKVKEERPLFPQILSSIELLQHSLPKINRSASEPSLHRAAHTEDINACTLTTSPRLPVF
Sequence of PRP4 (Q13523 whole entry, looked up): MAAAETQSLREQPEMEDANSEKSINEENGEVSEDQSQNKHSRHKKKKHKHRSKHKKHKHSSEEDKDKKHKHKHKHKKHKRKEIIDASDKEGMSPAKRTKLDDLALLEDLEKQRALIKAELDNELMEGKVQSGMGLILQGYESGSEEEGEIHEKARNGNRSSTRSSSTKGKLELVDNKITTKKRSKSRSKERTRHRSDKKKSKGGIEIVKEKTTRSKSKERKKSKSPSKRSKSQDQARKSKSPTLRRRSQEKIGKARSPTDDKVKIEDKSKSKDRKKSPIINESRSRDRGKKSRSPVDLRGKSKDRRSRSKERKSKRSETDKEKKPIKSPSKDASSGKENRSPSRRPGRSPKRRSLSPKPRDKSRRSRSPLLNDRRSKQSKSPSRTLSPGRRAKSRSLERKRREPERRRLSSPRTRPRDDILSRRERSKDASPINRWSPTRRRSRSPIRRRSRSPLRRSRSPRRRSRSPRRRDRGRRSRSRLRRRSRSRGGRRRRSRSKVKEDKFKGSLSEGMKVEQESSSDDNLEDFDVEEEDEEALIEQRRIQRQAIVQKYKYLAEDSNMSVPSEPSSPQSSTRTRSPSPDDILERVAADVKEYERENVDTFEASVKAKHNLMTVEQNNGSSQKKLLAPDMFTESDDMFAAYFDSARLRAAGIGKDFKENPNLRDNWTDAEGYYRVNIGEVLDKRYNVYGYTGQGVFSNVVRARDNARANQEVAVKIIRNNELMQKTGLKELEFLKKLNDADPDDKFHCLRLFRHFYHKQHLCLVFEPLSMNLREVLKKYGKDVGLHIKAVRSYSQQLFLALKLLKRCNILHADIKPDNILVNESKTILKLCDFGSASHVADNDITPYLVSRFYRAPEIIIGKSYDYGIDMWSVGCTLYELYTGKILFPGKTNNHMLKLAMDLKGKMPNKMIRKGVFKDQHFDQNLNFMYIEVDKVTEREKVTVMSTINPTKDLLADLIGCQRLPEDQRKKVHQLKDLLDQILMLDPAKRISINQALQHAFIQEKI

`CCN1CCN(Cc2cc(NC(=O)c3ccc(C)c(-c4ccc5nc(NC(=O)C6CC6)cn5n4)c3)cc(C(F)(F)F)c2)CC1` [Compound I-2, 3-(2-(cyclopropanecarboxamido)imidazo[1,2-b]pyridazin-6-yl)-N-(3-((4-ethylpiperazin-1-yl)methyl)-5-(trifluoromethyl)phenyl)-4-methylbenzamide] gave a remaining binding at 1 µM [1] of 89%, a remaining binding at 1 µM [2] of 38% and a remaining binding at 1 µM [3] of 96%. The remaining binding at 1 µM [4] was 90%, the remaining binding at 1 µM [5] was 13% and the remaining binding at 1 µM [6] was 0.15%. The remaining binding at 1 µM [7] was 87% and the remaining binding at 1 µM [8] was 2.3%.
In the case of `CCN1CCN(Cc2cc(NC(=O)c3ccc(C)c(-c4ccc5nc(NC(=O)C6CC6)cn5c4)c3)cc(C(F)(F)F)c2)CC1` [Compound I-6, 3-(2-(cyclopropanecarboxamido)imidazo[1,2-a]pyridin-6-yl)-N-(3-((4-ethylpiperazin-1-yl)methyl)-5-(trifluoromethyl)phenyl)-4-methylbenzamide], the remaining binding at 1 µM [1] is reported as 81%, the remaining binding at 1 µM [2] is reported as 31% and the remaining binding at 1 µM [3] is reported as 100%. For the same compound, the remaining binding at 1 µM [4] was 95%, the remaining binding at 1 µM [5] was 18% and the remaining binding at 1 µM [6] was 0.75%. For the same compound, the remaining binding at 1 µM [7] was 100% and the remaining binding at 1 µM [8] was 6.2%.
